# Measured values reported in patent US20120255051A1, “HERBICIDE TOLERANT PLANTS” (priority 2009, published 2012).
# Test system: Brassica plants comprising mutant AHAS alleles
# Assay: Greenhouse pre-planting application (20 g a.i./ha): vigor scores
# Format: in vivo, Brassica napus
# Settings: for vigor score Av, pre-planting (2, 3 and 4 weeks after treatment): 20 g a.i./ha
# Protocol: In another experiment, the effect of combining AHAS full knockouts with AHAS missense herbicide tolerant alleles on tolerance to thiencarbazone-methyl pre-planting application and thiencarbazone-methyl post-emergence spraying was tested in the greenhouse. To this end, the Brassica plants identified in Example 1 and 2 were backcrossed two times with an elite parent line, and subsequently selfed twice to obtain homozygous plants (BC2S2). Treatment pre-planting was carried out on the soil just after sowing with a dose of 20 g a.i./ha of thiencarbazone methyl. For assessment of vigor scores, plants were evaluated on a scale of 1 to 9, where 1=dead, 3=poor, 6=some aberrant phenotype and 9=vigorous. The vigor scores are an average of the scores taken at 2, 3 and 4 weeks after treatment. Treatment post-emergence at the first leaf stage was carried out with a dose of 10 g a.i./ha of thiencarbazone-methyl. The vigor scores are an average of the scores taken 1, 2 and 3 weeks after the treatment. The average values (Av) and standard deviations (SD) of the vigor scores are represented in Table 6.
smiles,measurement,setting,value
"COC(=O)c1csc(C)c1S(=O)(=O)NC(=O)n1nc(OC)n(C)c1=O [thiencarbazone-methyl, methyl 4-[(4,5-dihydro-3-methoxy-4-methyl-5-oxo-1H-1,2,4-triazol-1-yl)carbonylsulfamoyl]-5-methylthiophene-3-carboxylate]","vigor score Av, pre-planting (2, 3 and 4 weeks after treatment)","AHAS1 +/+, AHAS3 +/+ (HETO108+HETO104 series)",1.3
same,"vigor score Av, pre-planting (2, 3 and 4 weeks after treatment)","AHAS1 +/+, AHAS3 +/+ (HETO108+HETO111 series)",1.4
same,"vigor score Av, pre-planting (2, 3 and 4 weeks after treatment)","AHAS1 +/+, AHAS3 +/+ (HETO112+HETO111 series)",1.4
same,"vigor score Av, pre-planting (2, 3 and 4 weeks after treatment)","AHAS1 +/+, AHAS3 HETO104/HETO104",1.3
same,"vigor score Av, pre-planting (2, 3 and 4 weeks after treatment)","AHAS1 +/+, AHAS3 HETO111/HETO111 (HETO108+HETO111 series)",5.2
same,"vigor score Av, pre-planting (2, 3 and 4 weeks after treatment)","AHAS1 +/+, AHAS3 HETO111/HETO111 (HETO112+HETO111 series)",4.8
same,"vigor score Av, pre-planting (2, 3 and 4 weeks after treatment)","AHAS1 HETO108/HETO108, AHAS3 +/+ (HETO108+HETO104 series)",5.3
same,"vigor score Av, pre-planting (2, 3 and 4 weeks after treatment)","AHAS1 HETO108/HETO108, AHAS3 +/+ (HETO108+HETO111 series)",4.4
same,"vigor score Av, pre-planting (2, 3 and 4 weeks after treatment)","AHAS1 HETO108/HETO108, AHAS3 HETO104/HETO104",6.1
same,"vigor score Av, pre-planting (2, 3 and 4 weeks after treatment)","AHAS1 HETO108/HETO108, AHAS3 HETO111/HETO111",7.6
same,"vigor score Av, pre-planting (2, 3 and 4 weeks after treatment)","AHAS1 HETO112/HETO112, AHAS3 +/+",1.4
same,"vigor score Av, pre-planting (2, 3 and 4 weeks after treatment)","AHAS1 HETO112/HETO112, AHAS3 HETO111/HETO111",5.6
same,"vigor score Av, pre-planting (2, 3 and 4 weeks after treatment)",Elite parent line treated,1.8
same,"thiencarbazone-methyl tolerance of plants homozygous for a missense allele and a full knock-out allele, versus missense allele with other AHAS gene homozygous wild-type","pre-planting treatment, greenhouse",higher
